Test results: publication PMC2330188 (Acta Crystallographica Section F: Structural Biology and …, 2007)

Target: 5-formyltetrahydrofolate cyclo-ligase (BA4489) (Bacillus anthracis, UniProt A0A6L8PZ12)
Sequence (A0A6L8PZ12 2-192 limits assumed): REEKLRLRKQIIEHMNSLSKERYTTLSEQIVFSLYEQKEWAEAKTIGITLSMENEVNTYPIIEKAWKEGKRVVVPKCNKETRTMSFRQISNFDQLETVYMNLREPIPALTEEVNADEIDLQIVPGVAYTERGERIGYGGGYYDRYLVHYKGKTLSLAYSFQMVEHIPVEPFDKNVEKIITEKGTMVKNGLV

## O=P(O)(O)O [phosphate]
  X-ray crystal structure, 1.6 Å: hydrolysed to ADP and inorganic phosphate
